The record followed here is ChEMBL document CHEMBL1201862, “PubChem BioAssay data set” (2004).

Each structure is given as a SMILES string.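 96-well plates; 48 h exposure; 5 concentrations. Endpoints by linear interpolation between flanking doses. Not reached: highest tested concentration assigned. Here, GI50 denotes the concentration required for 50% inhibition of growth.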 Active and inactive are the calls of the source. Rule as the data show it: active = GI50 up to about 1.1 µM and inactive = higher.

Some test systems named below: BT-549; EKVX; HCC 2998; HCT-15; HOP-92; LOX IMVI; MDA-MB-435; MOLT-4; NCI-H226; NCI-H522; SK-MEL-5; SW-620; U-251; UACC-62; UO-31; HOP-62; M14; Malme-3M; RPMI-8226.
Assay in all cases: growth of human tumour cells (NCI), 48 h

For `Cc1ccc(NC(=O)C(=O)C2C(=O)C3=C(CC2(C)C)NC2C=CC=CC2S3)c(C)c1` (stereo unspecified), the GI50 in the experiment on BT-549 is > 100 µM (inactive); with EKVX, 73.8 µM (inactive); in the experiment with HCC 2998 it was > 100 µM (inactive); in the experiment with HCT-15, over 100 µM; in the experiment with HOP-92, 38.1 µM (inactive); with LOX IMVI, > 100 µM (inactive). Also, the GI50 in the experiment with MDA-MB-435 was > 100 µM (inactive); with MOLT-4, 99.8 µM (inactive); in the experiment with NCI-H226, 56.2 µM (inactive); in the experiment on NCI-H522, > 100 µM (inactive); with SK-MEL-5 it was 85.1 µM (inactive); in the experiment with SW-620 it was > 100 µM (inactive). For the same compound, the GI50 in the experiment on U-251 is 59 µM (inactive); in the experiment on UACC-62 it was > 100 µM (inactive); in the experiment on UO-31 it was 48.2 µM (inactive).
With `Cc1n[nH]c(=O)n1N1C(=O)c2ccccc2C1=O`, the GI50 was > 100 µM (inactive) with BT-549; > 100 µM (inactive) in the experiment with EKVX; > 100 µM (inactive) in the experiment on HCC 2998; over 100 µM in the experiment on HCT-15; > 100 µM (inactive) in the experiment with HOP-62; > 100 µM (inactive) in the experiment with HOP-92. The GI50 in the experiment on LOX IMVI, in the experiment on M14, in the experiment on MDA-MB-435, in the experiment on MOLT-4, in the experiment with Malme-3M and in the experiment with NCI-H226 was > 100 µM (inactive) in each case. Also, the GI50 in the experiment on SK-MEL-5, in the experiment with SW-620, in the experiment on U-251, in the experiment with UACC-62 and with UO-31 was > 100 µM (inactive) each time.
On to `CC(C)(C)C1CCC2c3c([nH]c4ccccc34)C3C(=O)N(c4cccc([N+](=O)[O-])c4)C(=O)C3C2C1` (stereo unspecified), for which the GI50 in the experiment with BT-549 is 17 µM (inactive); in the experiment with EKVX it was 22.4 µM (inactive); with HCC 2998, 27.7 µM (inactive); in the experiment with HCT-15, 37.1 µM; in the experiment with HOP-62, 29.6 µM (inactive); with HOP-92, 61.5 µM (inactive). Also, the GI50 with LOX IMVI was 17.8 µM (inactive); in the experiment on M14 it was 37.6 µM (inactive); with MDA-MB-435 it was 16.1 µM (inactive); with MOLT-4, 6.84 µM (inactive); with Malme-3M, 23.2 µM (inactive); with NCI-H226, 25.4 µM (inactive). In addition, the GI50 is 14.6 µM (inactive) in the experiment with NCI-H522; 57.8 µM (inactive) with SW-620; > 100 µM (inactive) in the experiment with U-251; 23.4 µM (inactive) with UACC-62; 35.2 µM (inactive) with UO-31.
For `CCCCCCCCCCCCCCCCC(=O)NCC(=O)NCC(=O)NC(Cc1ccccc1)C(=O)Oc1ccc([N+](=O)[O-])cc1` (stereo unspecified), the GI50 in the experiment on BT-549 is 16.7 µM (inactive); in the experiment with EKVX, 37.8 µM (inactive); in the experiment on HCC 2998, 17.7 µM (inactive); with HCT-15 it was 19.1 µM; in the experiment with HOP-62 it was 22 µM (inactive); in the experiment on HOP-92, 32.1 µM (inactive). In addition, the GI50 is 20.4 µM (inactive) with LOX IMVI; 21.4 µM (inactive) in the experiment with M14; 58.5 µM (inactive) in the experiment on MDA-MB-435; 16.4 µM (inactive) with MOLT-4; 35 µM (inactive) in the experiment on NCI-H226; 26.7 µM (inactive) in the experiment with NCI-H522. For the same compound, the GI50 in the experiment on RPMI-8226 was 21 µM (inactive); in the experiment with SK-MEL-5 it was 21.6 µM (inactive); with SW-620 it was 19.4 µM (inactive); in the experiment on U-251 it was 18.4 µM (inactive); in the experiment with UACC-62, 20.7 µM (inactive); with UO-31, 67.9 µM (inactive).
Turning to `COc1ccc(/N=N/C(=N/NC(=O)c2ccc(C)cc2)c2ccc(N(CCC#N)CCC#N)cc2OC)cc1`, the GI50 in the experiment on BT-549 was > 100 µM (inactive); in the experiment with EKVX it was > 100 µM (inactive); in the experiment on HCC 2998, > 100 µM (inactive); with HCT-15 it was over 100 µM; with HOP-62, > 100 µM (inactive); with HOP-92, > 100 µM (inactive). Besides, the GI50 in the experiment on LOX IMVI, in the experiment with M14, in the experiment on MDA-MB-435, in the experiment on MOLT-4, in the experiment with Malme-3M and with NCI-H226 was > 100 µM (inactive) throughout. Besides, the GI50 in the experiment on NCI-H522, with SK-MEL-5, in the experiment on SW-620, in the experiment with U-251, in the experiment on UACC-62 and in the experiment on UO-31 was > 100 µM (inactive) in each case.
Consider `CC1=CC(C)C(O)C(C)/C=C\C(O)C/C=C(/C)C(=O)CC(O)C(C)\C=C/C=C\C=C/C(=O)NC2=C(O)C(=O)c3c(cc(C)c(O)c3C1=O)C2=O` (stereo unspecified), for which the GI50 with BT-549 is > 100 µM (inactive); in the experiment on EKVX, > 100 µM (inactive); in the experiment with HCC 2998, 86.1 µM (inactive); in the experiment with HCT-15 it was over 100 µM; with HOP-62, > 100 µM (inactive); with HOP-92, > 100 µM (inactive). In addition, the GI50 with LOX IMVI was > 100 µM (inactive); in the experiment with M14, > 100 µM (inactive); in the experiment with MDA-MB-435, > 100 µM (inactive); with MOLT-4, 71.1 µM (inactive); in the experiment on NCI-H522, > 100 µM (inactive); in the experiment on RPMI-8226, > 100 µM (inactive). The GI50 was 91 µM (inactive) with SK-MEL-5; > 100 µM (inactive) with SW-620; > 100 µM (inactive) with U-251; 97.7 µM (inactive) in the experiment with UACC-62; > 100 µM (inactive) in the experiment with UO-31.
For the compound `Cc1ccc2c(O)c3c(cc2c1)C(=O)c1c2c(cc(O)c1C3=O)C1(C)OC(O2)C(O)C(N(C)C)C1O` (stereo unspecified), the GI50 in the experiment on BT-549 was 1.49 µM (inactive); in the experiment with EKVX, 1.32 µM (inactive); with HCC 2998, 1.19 µM (inactive); with HCT-15, 0.614 µM; with HOP-62, 1.01 µM (active); in the experiment on HOP-92, 1.01 µM (active). Moreover, the GI50 with LOX IMVI is 1.11 µM (active); in the experiment on M14, 1.56 µM (inactive); in the experiment with MDA-MB-435, 1.39 µM (inactive); in the experiment on MOLT-4, 0.124 µM (active); with NCI-H226, 1.15 µM (inactive); in the experiment on NCI-H522 it was 1.22 µM (inactive). Also, the GI50 in the experiment with RPMI-8226 is 0.29 µM (active); with SK-MEL-5 it was 1.22 µM (inactive); in the experiment with SW-620, 1.02 µM (active); in the experiment with U-251, 1.16 µM (inactive); in the experiment with UACC-62, 1.07 µM (active); with UO-31, 1.27 µM (inactive).
As to `CCOC(=O)c1c(NC(=O)OC)c(C#N)c2n1CCCCC2`, the GI50 with BT-549 was > 100 µM (inactive); with EKVX, > 100 µM (inactive); in the experiment on HCC 2998, > 100 µM (inactive); with HCT-15, over 100 µM; in the experiment with HOP-62 it was > 100 µM (inactive); with HOP-92 it was 93.3 µM (inactive). Moreover, the GI50 is > 100 µM (inactive) in the experiment with LOX IMVI; > 100 µM (inactive) in the experiment on M14; > 100 µM (inactive) in the experiment on MDA-MB-435; 45.1 µM (inactive) in the experiment on MOLT-4; > 100 µM (inactive) in the experiment on NCI-H226; > 100 µM (inactive) in the experiment with RPMI-8226. In addition, the GI50 with SK-MEL-5, in the experiment on SW-620, in the experiment with U-251, in the experiment with UACC-62 and with UO-31 was > 100 µM (inactive) in each case.
On to `COC(=O)[C@@]12CSC[C@]1(C(=O)OC)N[C@@H](c1ccccc1O)C2`, for which the GI50 was > 100 µM (inactive) in the experiment with BT-549; > 100 µM (inactive) in the experiment with EKVX; > 100 µM (inactive) with HCC 2998; over 100 µM in the experiment on HCT-15; > 100 µM (inactive) in the experiment on HOP-62; > 100 µM (inactive) with HOP-92. The GI50 in the experiment with M14, in the experiment on MDA-MB-435, in the experiment with MOLT-4, in the experiment on Malme-3M, in the experiment with NCI-H226 and in the experiment with NCI-H522 was > 100 µM (inactive) throughout. For the same compound, the GI50 with RPMI-8226, in the experiment on SK-MEL-5, in the experiment with SW-620, with U-251, in the experiment on UACC-62 and with UO-31 was > 100 µM (inactive) throughout.
With `CC1(C)COP(=S)(c2ccccn2)O[C@@H]1c1ccccc1` (stereo partly specified), the GI50 is > 100 µM (inactive) with BT-549; > 100 µM (inactive) with EKVX; > 100 µM (inactive) with HCC 2998; 94.2 µM in the experiment with HCT-15; > 100 µM (inactive) in the experiment on HOP-62; > 100 µM (inactive) in the experiment with HOP-92. Also, the GI50 was > 100 µM (inactive) in the experiment with LOX IMVI; > 100 µM (inactive) with M14; > 100 µM (inactive) in the experiment with MDA-MB-435; 30.1 µM (inactive) in the experiment on MOLT-4; > 100 µM (inactive) in the experiment on Malme-3M; 37.9 µM (inactive) in the experiment with NCI-H226. The GI50 in the experiment with NCI-H522 is 56.6 µM (inactive); in the experiment with SK-MEL-5, 26.9 µM (inactive); with SW-620, > 100 µM (inactive); in the experiment on U-251 it was > 100 µM (inactive); in the experiment with UACC-62, > 100 µM (inactive); in the experiment with UO-31, 50.8 µM (inactive).
As for `CN(N=O)C(=O)Nc1ccc(C(=O)O)cc1`, the GI50 in the experiment on BT-549 is > 100 µM (inactive); in the experiment with EKVX, > 100 µM (inactive); with HCC 2998, > 100 µM (inactive); in the experiment with HCT-15, over 100 µM; with HOP-62, > 100 µM (inactive); in the experiment on HOP-92 it was > 100 µM (inactive). For the same compound, the GI50 in the experiment on LOX IMVI, in the experiment with M14, with MDA-MB-435, in the experiment on MOLT-4, with NCI-H226 and in the experiment with NCI-H522 was > 100 µM (inactive) throughout. The GI50 with RPMI-8226, with SK-MEL-5, in the experiment on SW-620, with U-251, in the experiment on UACC-62 and in the experiment with UO-31 was > 100 µM (inactive) throughout.
